Values quoted from earlier work as cited in patent US12582389B2, “Urine preservative composition, device for sampling urine and method for manufacturing a urine sampling device” (VACUTEST KIMA S.R.L., priority 2020, dated 2026).

Experiments:
[1] = urine samples with boric acid
Klebsiella sp. = conditions: boric acid 1.5-2% W/V with respect to the sample volume

In the case of `OB(O)O` [boric acid], the “pH of urine samples” value [1] is listed as roughly 5 and the “effect on the most sensitive Gram-negative bacterial strains” value (Klebsiella sp.) is listed as “death”.
